Assay results reported in patent US20260001914A1, “MACROCYCLIC PEPTIDES TARGETING KRAS” (Merck Sharp & Dohme LLC, priority 2022, published 2026).
*1 amine or outer side, *2 acyl side, *3 side chain or, on linkers, in order; H or OH if unused. Where a SMILES comes first, the peptide text is derived from it. Bridges are numbered along the chain shown (N, C = ends). [ ]: non-standard residue; d: D form. The star is where a group is joined. NMeNva(5-imidazol-1-yl) = CN[C@@H](CCCn1ccnc1)C(=O)O; Phe(4-guanidino) = N=C(N)Nc1ccc(C[C@H](N)C(=O)O)cc1; X59 = O=C([C@H](Cc1ccc(CN2CCCC2)cc1)N[*:1])[*:2]; X22 = CNC(=N)N(C)CCC[C@@H](C(=O)[*:2])N(C)[*:1]; Ala(pyrimidin-5-yl) = N[C@@H](Cc1cncnc1)C(=O)O; Ala(thiazol-5-yl) = N[C@@H](Cc1cncs1)C(=O)O; NMe3Pal(5-F) = CN[C@@H](Cc1cncc(F)c1)C(=O)O; NMePhe(3-Me) = CN[C@@H](Cc1cccc(C)c1)C(=O)O; NMePhe(3-F) = CN[C@@H](Cc1cccc(F)c1)C(=O)O; Abu(4,4,4-F3) = N[C@@H](CC(F)(F)F)C(=O)O; X24 = O=C([C@H](Cc1ccncc1Cl)N[*:1])[*:2]; X69 = O=C([C@H]1CC[C@@H](N[*:1])C1)[*:2]; X11 = CC(C)(F)CC[C@H](N[*:1])C(=O)[*:2]; X15 = O=C([C@H](Cc1cnccc1F)N[*:1])[*:2]; NMeAha = CN[C@@H](CCN=[N+]=[N-])C(=O)O; 1Nal = N[C@@H](Cc1cccc2ccccc12)C(=O)O; X35 = CN([C@@H](CCCF)C(=O)[*:2])[*:1]; Phe(2-F) = N[C@@H](Cc1ccccc1F)C(=O)O; NMe3Pal = CN[C@@H](Cc1cccnc1)C(=O)O; X1 = O=C(C12CC(CN[*:1])(C1)C2)[*:2]; Aha = [N-]=[N+]=NCC[C@H](N)C(=O)O; Ala(cPr) = N[C@@H](CC1CC1)C(=O)O; NMeF = CN[C@@H](Cc1ccccc1)C(=O)O; PhLac = O=C(O)[C@@H](O)Cc1ccccc1; 3Pal = N[C@@H](Cc1cccnc1)C(=O)O; 4Pal = N[C@@H](Cc1ccncc1)C(=O)O; Ahp(2) = CCCCC[C@H](N)C(=O)O; Cba = N[C@@H](CC1CCC1)C(=O)O; hLeu = CC(C)CC[C@H](N)C(=O)O; hLys = NCCCCC[C@H](N)C(=O)O; αMeC = C[C@](N)(CS)C(=O)O; NMeA = CN[C@@H](C)C(=O)O; Nle = CCCC[C@H](N)C(=O)O; CHF2 = FC(F)*

target: KRAS-G12D protein (Homo sapiens, UniProt P01116, G12D); test: SOS-mediated nucleotide exchange assay (BODIPY-GDP / Tb-streptavidin TR-FRET); format: biochemical
Sequence (P01116 1-188 isoform P01116-2 G12D): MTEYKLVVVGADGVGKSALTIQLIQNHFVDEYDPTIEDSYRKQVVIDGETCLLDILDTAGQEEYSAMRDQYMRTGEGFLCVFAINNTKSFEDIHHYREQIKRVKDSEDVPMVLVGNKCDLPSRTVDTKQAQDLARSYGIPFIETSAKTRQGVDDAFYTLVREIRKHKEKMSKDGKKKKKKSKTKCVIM

Compound	EC50 [nM]
CCCC[C@@H]1NC(=O)[C@H](C(C)C)NC(=O)[C@H](CC2CCC2)NC(=O)[C@H](Cc2cccnc2)NC(=O)[C@H](CCN=[N+]=[N-])NC(=O)[C@H](Cc2ccccc2)NC(=O)C23CC(CNC(=O)[C@H](Cc4cccnc4)N(C)C1=O)(C2)C3 [compound 113, cyclo(F-DabN3~3Pal-cBuA-V-Nle-NMe3Pal-amBCP)] (cyclo(F[Aha][3Pal][Cba]V[Nle][NMe3Pal][X1]))	6560
C[C@H]1C(=O)N[C@@H](Cc2cncnc2)C(=O)N[C@@H](CC2CC2)C(=O)N[C@@H](Cc2ccncc2Cl)C(=O)N[C@@H](CCC(C)(C)F)C(=O)N(C)[C@@H](Cc2ccccc2)C(=O)NCC23CC(C2)(C3)C(=O)O[C@@H](Cc2ccccc2)C(=O)N1C [compound 299, cyclo(FLac-NMeA-PyrimAla-cPrA-4Pal2Cl-hL3F-NMeF-amBCP)] (cyclo([Ala(cPr)][X24][X11][NMeF][X1][PhLac][NMeA][Ala(pyrimidin-5-yl)]))	6.3
CC(C)CC[C@@H]1NC(=O)[C@H](Cc2ccccc2F)NC(=O)[C@H](CC2CC2)NC(=O)[C@H](Cc2cncnc2)NC(=O)[C@H](CCCF)N(C)C(=O)[C@H](Cc2ccccc2)OC(=O)C23CC(CNC(=O)[C@H](Cc4ccccc4)N(C)C1=O)(C2)C3 [compound 216, cyclo(FLac-NMeNvaF-PyrimAla-cPrA-Phe2F-hL-NMeF-amBCP)] (cyclo([Ala(cPr)][Phe(2-F)][hLeu][NMeF][X1][PhLac][X35][Ala(pyrimidin-5-yl)]))	26
CCCC[C@@H]1NC(=O)[C@H](Cc2ccncc2)NC(=O)[C@H](CCCNC(=N)N)NC(=O)[C@H](Cc2cccc3ccccc23)NC(=O)CSC[C@@](C)(C(N)=O)NC(=O)[C@H](Cc2cccnc2)N(C)C(=O)[C@H](CCCC)NC(=O)[C@H](Cc2ccc(O)cc2)NC1=O [compound 333, cyclo(INal-R-4Pal-Nle-Y-Nle-NMe3Pal-aMeCl-ClAc)] ({CH2CO}-[1Nal]R[4Pal][Nle]Y[Nle][NMe3Pal][αMeC]-NH2; thioether N-8)	19.9
CCCCC[C@@H]1NC(=O)[C@H](Cc2ccc(OC)cc2)NC(=O)[C@H](CC2CCC2)NC(=O)[C@H](Cc2ccc(-c3cccnc3N)cc2)NC(=O)[C@H](CCCNC(=N)N)NC(=O)[C@H](Cc2ccccc2)NC(=O)CSC[C@@](C)(C(N)=O)NC(=O)[C@H](Cc2ccccc2)N(C)C1=O [compound 390, cyclo(F-R-Phe43PyNH2-cBuA-TyrOMe-Ahp-NMeF-aMeCl-ClAc)]	9.17
CCCC[C@@H]1NC(=O)[C@H](Cc2ccc(OC(F)F)cc2)NC(=O)[C@H](C)N(C)C(=O)[C@H](Cc2ccccc2)OC(=O)C23CC(CNC(=O)[C@H](Cc4ccccc4)N(C)C(=O)[C@H](CCCC)NC(=O)[C@H](Cc4ccccc4F)NC1=O)(C2)C3 [compound 312, cyclo(FLac-NMeA-TyrOCF2-Nle-Phe2F-Nle-NMeF-amBCP)] (cyclo([NMeA]Y(CHF2)[Nle][Phe(2-F)][Nle][NMeF][X1][PhLac]))	966
CCCCC[C@@H]1NC(=O)[C@H](Cc2ccc(OC)cc2)NC(=O)[C@H](CC2CCC2)NC(=O)[C@H](Cc2cncs2)NC(=O)[C@H](CCCNC(=N)N)NC(=O)[C@H](Cc2ccccc2)NC(=O)CSC[C@@](C)(C(N)=O)NC(=O)[C@H](Cc2ccccc2)N(C)C1=O [compound 363, cyclo(F-R-TZAla-cBuA-TyrOMe-Ahp-NMeF-aMeCl-ClAc)] ({CH2CO}-FR[Ala(thiazol-5-yl)][Cba]Y(Me)[Ahp(2)][NMeF][αMeC]-NH2; thioether N-8)	13.2
C[C@H]1C(=O)N[C@@H](Cc2cccnc2)C(=O)N[C@@H](CC2CC2)C(=O)N[C@@H](Cc2ccccc2F)C(=O)N[C@@H](CCC(C)(C)F)C(=O)N(C)[C@@H](Cc2cncc(F)c2)C(=O)NCC23CC(C2)(C3)C(=O)O[C@@H](Cc2ccccc2)C(=O)N1C [compound 284, cyclo(FLac-NMeA-3Pal-cPrA-Phe2F-hL3F-NMe3Pal5F-amBCP)] (cyclo([3Pal][Ala(cPr)][Phe(2-F)][X11][NMe3Pal(5-F)][X1][PhLac][NMeA]))	2
CCCC[C@@H]1NC(=O)[C@H](Cc2ccc(CN3CCCC3)cc2)NC(=O)[C@H](CCCn2ccnc2)N(C)C(=O)[C@H](Cc2ccccc2)N(C)C(=O)C23CC(CNC(=O)[C@H](Cc4cccnc4)N(C)C(=O)[C@H](CCCC)NC(=O)[C@H](Cc4ccccc4F)NC1=O)(C2)C3 [compound 259, cyclo(NMeF-NMeNvalmid-Phe4cPyrr-Nle-Phe2F-Nle-NMe3Pal-amBCP)] (cyclo([NMe3Pal][X1][NMeF][NMeNva(5-imidazol-1-yl)][X59][Nle][Phe(2-F)][Nle]))	3220
CCCC[C@@H]1NC(=O)[C@H](Cc2cccnc2)NC(=O)[C@H](CCCNC(=N)N)NC(=O)[C@H](Cc2ccccc2)OC(=O)C23CC(CNC(=O)[C@H](Cc4ccccc4)N(C)C(=O)[C@H](CCCC)NC(=O)[C@H](Cc4ccccc4F)NC1=O)(C2)C3 [compound 212, cyclo(FLac-R-3Pal-Nle-Phe2F-Nle-NMeF-amBCP)] (cyclo([PhLac]R[3Pal][Nle][Phe(2-F)][Nle][NMeF][X1]))	20.7
CCCCC[C@@H]1NC(=O)[C@H](Cc2ccc(OC)cc2)NC(=O)[C@H](CC2CCC2)NC(=O)[C@H](CCCCCN)NC(=O)[C@H](CCCNC(=N)N)NC(=O)[C@H](Cc2ccccc2)NC(=O)CSC[C@@](C)(C(N)=O)NC(=O)[C@H](Cc2ccccc2)N(C)C1=O [compound 348, cyclo(F-R-hK-cBuA-TyrOMe-Ahp-NMeF-aMeCl-ClAc)] ({CH2CO}-FR[hLys][Cba]Y(Me)[Ahp(2)][NMeF][αMeC]-NH2; thioether N-8)	45.8
CCCCC[C@@H]1NC(=O)[C@H](Cc2ccc(OC)cc2)NC(=O)[C@H](CC2CCC2)NC(=O)[C@H](Cc2ccoc2)NC(=O)[C@H](CCCNC(=N)N)NC(=O)[C@H](Cc2ccccc2)NC(=O)CSC[C@@](C)(C(N)=O)NC(=O)[C@H](Cc2ccccc2)N(C)C1=O [compound 371, cyclo(F-R-Ala3Fur-cBuA-TyrOMe-Ahp-NMeF-aMeCl-ClAc)]	82.6
CCCC[C@@H]1NC(=O)[C@H](Cc2cncnc2)NC(=O)[C@H](C)N(C)C(=O)[C@H](Cc2ccccc2)OC(=O)C23CC(CNC(=O)[C@H](Cc4cccc(F)c4)N(C)C(=O)[C@H](CCCC)NC(=O)[C@H](Cc4ccccc4F)NC1=O)(C2)C3 [compound 174, cyclo(FLac-NMeA-PyrimAla-Nle-Phe2F-Nle-NMePhe3F-amBCP)] (cyclo([NMeA][Ala(pyrimidin-5-yl)][Nle][Phe(2-F)][Nle][NMePhe(3-F)][X1][PhLac]))	12.2
CCCC[C@@H]1NC(=O)[C@H](Cc2cccnc2)NC(=O)[C@H](CCN=[N+]=[N-])N(C)C(=O)[C@H](Cc2ccccc2)NC(=O)C23CC(CNC(=O)[C@H](Cc4cccnc4)N(C)C(=O)[C@H](CCCC)NC(=O)[C@H](Cc4ccccc4F)NC1=O)(C2)C3 [compound 245, cyclo(F-NMeDabN3-3Pal-Nle-Phe2F-Nle-NMe3Pal-amBCP)] (cyclo(F[NMeAha][3Pal][Nle][Phe(2-F)][Nle][NMe3Pal][X1]))	267
CCCC[C@@H]1NC(=O)[C@H](Cc2cccnc2)NC(=O)[C@H](C)N(C)C(=O)[C@H](Cc2ccccc2)OC(=O)CSC[C@@](C)(C(N)=O)NC(=O)[C@H](Cc2cccnc2)N(C)C(=O)[C@H](CCCC)NC(=O)[C@H](Cc2ccccc2F)NC1=O [compound 398, cyclo(FLac-NMeA-3Pal-Nlc-Phe2F-Nle-NMe3Pal-aMeCl-ClAc)] ({CH2CO}-[PhLac][NMeA][3Pal][Nle][Phe(2-F)][Nle][NMe3Pal][αMeC]-NH2; thioether N-8)	3.81
CCCC[C@@H]1NC(=O)[C@H](Cc2ccc(NC(=N)N)cc2)NC(=O)[C@H](CCCNC(=N)N)NC(=O)[C@H](Cc2cccc3ccccc23)NC(=O)CNC(=O)[C@H](C)NC(=O)[C@H](Cc2ccccc2)N(C)C(=O)[C@H](CCCC)NC(=O)[C@H](Cc2ccc(O)cc2)NC1=O [compound 199, cyclo(INal-R-Phe4Gn-Nle-Y-Nle-NMeF-A-G)] (cyclo([1Nal]R[Phe(4-guanidino)][Nle]Y[Nle][NMeF]AG))	346
CCCC[C@@H]1NC(=O)[C@H](Cc2cccnc2)NC(=O)[C@H](C)N(C)C(=O)[C@H](Cc2ccccc2)OC(=O)C23CC(CNC(=O)[C@H](Cc4cccnc4)N(C)C(=O)[C@H](CCC(C)C)NC(=O)[C@H](Cc4ccccc4F)NC1=O)(C2)C3 [compound 124, cyclo(FLac-NMeA-3Pal-Nle-Phe2F-hL-NMe3Pal-amBCP)] (cyclo([3Pal][Nle][Phe(2-F)][hLeu][NMe3Pal][X1][PhLac][NMeA]))	2.17
CCCCC[C@@H]1NC(=O)[C@H](Cc2ccc(OC)cc2)NC(=O)[C@H](CC2CCC2)NC(=O)[C@H](Cc2ccc(NC(=N)N)cc2)NC(=O)[C@H](CCCN(C)C(=N)NC)N(C)C(=O)[C@H](Cc2ccccc2)NC(=O)CSC[C@@](C)(C(N)=O)NC(=O)[C@H](Cc2ccccc2)N(C)C1=O [compound 381, cyclo(F-NMeArg1MeMe-Phe4Gn-cBuA-TyrOMe-Ahp-NMeF-aMeCl-ClAc)] ({CH2CO}-F[X22][Phe(4-guanidino)][Cba]Y(Me)[Ahp(2)][NMeF][αMeC]-NH2; thioether N-8)	1.69
Cc1cccc(C[C@H]2C(=O)NCC34CC(C3)(C4)C(=O)O[C@@H](Cc3ccccc3)C(=O)N(C)[C@@H](C)C(=O)N[C@@H](Cc3cncnc3)C(=O)N[C@@H](CC3CC3)C(=O)N[C@@H](Cc3cnccc3F)C(=O)N[C@@H](CCC(C)C)C(=O)N2C)c1 [compound 278, cyclo(FLac-NMeA-PyrimAla-cPrA-3Pal6F-hL-NMePhe3Me-amBCP)] (cyclo([Ala(cPr)][X15][hLeu][NMePhe(3-Me)][X1][PhLac][NMeA][Ala(pyrimidin-5-yl)]))	2
CCCC[C@@H]1NC(=O)[C@H](CC(F)(F)F)NC(=O)[C@H](CC2CCC2)NC(=O)[C@H](Cc2cccnc2)NC(=O)[C@H](CCCNC(=N)N)NC(=O)[C@H](Cc2ccccc2)NC(=O)CSC[C@@](C)(C(N)=O)NC(=O)[C@H](Cc2ccccc2)N(C)C1=O [compound 54, cyclo(F-R-3Pal-cBuA-AbuF3-Nle-NMeF-aMeCl-ClAc)] ({CH2CO}-FR[3Pal][Cba][Abu(4,4,4-F3)][Nle][NMeF][αMeC]-NH2; thioether N-8)	861
CCCC[C@@H]1NC(=O)[C@H](Cc2cccnc2)NC(=O)[C@H](CCCNC(=N)N)NC(=O)[C@H](Cc2ccccc2)NC(=O)[C@H]2CC[C@H](C2)NC(=O)[C@H](Cc2ccccc2)N(C)C(=O)[C@H](CCCC)NC(=O)[C@H](Cc2ccc(OC)cc2)NC1=O [compound 202, cyclo(F-R-3Pal-Nle-TyrOMe-Nle-NMeF-dbhcLeu)] (cyclo(FR[3Pal][Nle]Y(Me)[Nle][NMeF][X69]))	949
